Results: patent US20180116220A1, “NOVEL TRIAZOLE DERIVATIVES” (BAYER CROPSCIENCE AKTIENGESELLSCHAFT, priority 2015, published 2018)
Values joined by “and” are separate entries in the source; they are usually repeats but may differ in a detail not shown here. Equal values may be shown once. Marks after values point to notes of the source that are not given here.

Test: LogP by HPLC on reversed phase columns (EEC directive 79/831 Annex V.A8)
Assay type: physicochemical
Conditions: for chromatographic logP: reversed phase HPLC column
Protocol: [table] If more than one LogP value is available within the same method, all the values are given and separated by “+”. […] Lambda-max-values were determined using UV-spectra from 200 nm to 400 nm and the peak values of the chromatographic signals. Measurement of LogP values was performed as outlined above.

[1] = [a] LC-UV, acidic range, 0.1% formic acid in water and acetonitrile as eluent
[2] = [b] LC-UV, neutral range, 0.001 molar ammonium acetate solution in water and acetonitrile as eluent

| Structure (SMILES) | LogP [1] | LogP [2] | chromatographic logP [1] | chromatographic logP [2] |
| --- | --- | --- | --- | --- |
| OC(Cn1cncn1)(c1ccc(F)cc1F)C1(Oc2ccc(Cl)cc2F)CC1 (racemic) [Example I-01] | 3.52^[a]; | 3.50^[b] | – | – |
| OC(Cn1cncn1)(c1ccc(F)cc1F)C1(Oc2ccc(F)cc2Cl)CC1 (racemic) [Example I-02] | 3.47^[a]; | 3.46^[b] | – | – |
| OC(Cn1cncn1)(c1ccc(F)cc1F)C1(Oc2ccccc2F)CC1 (racemic) [Example I-03] | 3.04^[a] | – | – | – |
| OC(Cn1cncn1)(c1ccc(F)cc1F)C1(Oc2ccccc2I)CC1 (racemic) [Example I-04] | 3.64^[a]; | 3.64^[b] | – | – |
| OC(Cn1cncn1)(c1ccc(F)cc1F)C1(Oc2ccccc2Br)CC1 (racemic) [Example I-05] | 3.44^[a]; | 3.43^[b] | – | – |
| OC(Cn1cncn1)(c1ccc(F)cc1F)C1(Oc2cccc(Br)c2)CC1 (racemic) [Example I-06] | 3.54^[a]; | 3.54^[b] | – | – |
| OC(Cn1cncn1)(c1ccc(F)cc1F)C1(Oc2ccc(Br)cc2)CC1 (racemic) [Example I-07] | 3.59^[a]; | 3.59^[b] | – | – |
| OC(Cn1cncn1)(c1ccc(F)cc1F)C1(Oc2ccc(I)cc2)CC1 (racemic) [Example I-08] | 3.78^[a]; | 3.80^[b] | – | – |
| OC(Cn1cncn1)(c1ccc(F)cc1F)C1(Oc2ccc(Br)cc2F)CC1 (racemic) [Example I-09] | 3.56^[a]; | 3.54^[b] | – | – |
| OC(Cn1cncn1)(c1ccc(F)cc1F)C1(Oc2ccccc2)CC1 (racemic) [Example I-11] | 3.67^[a]; | 3.71^[b] | – | – |
| Cc1cc(I)ccc1OC1(C(O)(Cn2cncn2)c2ccc(F)cc2F)CC1 (racemic) [Example I-12] | 4.25^[a]; | 4.30^[b] | – | – |
| Cc1cc(Br)ccc1OC1(C(O)(Cn2cncn2)c2ccc(F)cc2F)CC1 (racemic) [Example I-13] | 3.99^[a]; | 4.08^[b] | – | – |
| OC(Cn1cncn1)(c1ccc(F)cc1F)C1(Oc2ccc(OC(F)(F)F)cc2)CC1 (racemic) [Example I-14] | 3.70^[a]; | 3.77^[b] | – | – |
| OC(Cn1cncn1)(c1ccc(F)cc1F)C1(Oc2ccc(SC(F)(F)F)cc2)CC1 (racemic) [Example I-15] | 4.09^[a]; | 4.13^[b] | – | – |
| OC(Cn1cncn1)(c1ccc(Cl)cc1F)C1(Oc2ccc(F)cc2F)CC1 (racemic) [Example I-16] | 3.44^[a] | – | – | – |
| CC(=O)OC(Cn1cncn1)(c1ccc(F)cc1F)C1(Oc2ccc(Cl)cc2)CC1 (racemic) [Example I-17] | 3.47^[a]; | 3.47^[b] | – | – |
| OC(Cn1cncn1)(c1ccc(F)cc1F)C1(Oc2c(F)cccc2F)CC1 (racemic) [Example I-18] | 3.02^[a] | – | – | – |
| OC(Cn1cncn1)(c1ccc(F)cc1F)C1(Oc2c(Cl)cccc2Cl)CC1 (racemic) [Example I-19] | 3.76^[a] | – | – | – |
| COC(Cn1cncn1)(c1ccc(F)cc1F)C1(Oc2c(Cl)cccc2Cl)CC1 (racemic) [Example I-20] | 4.06^[a] | – | – | – |
| COC(Cn1cncn1)(c1ccc(F)cc1F)C1(Oc2c(F)cccc2F)CC1 (racemic) [Example I-21] | 3.48^[a] | – | – | – |
| OC(Cn1cncn1)(c1ccc(F)cc1F)C1(Oc2c(F)cccc2Cl)CC1 (racemic) [Example I-22] | 3.39^[a] | – | – | – |
| COC(Cn1cncn1)(c1ccc(F)cc1F)C1(Oc2c(F)cccc2Cl)CC1 (racemic) [Example I-23] | 3.78^[a] | – | – | – |
| OC(Cn1cncn1)(c1ccc(F)cc1F)C1(Oc2c(F)cccc2Br)CC1 (racemic) [Example I-24] | 3.51^[a] | – | – | – |

| Structure (SMILES) | LogP [1] | LogP [2] | chromatographic logP [1] | chromatographic logP [2] |
| --- | --- | --- | --- | --- |
| COC(Cn1cncn1)(c1ccc(F)cc1F)C1(Oc2c(F)cccc2Br)CC1 (racemic) [Example I-25] | 3.83^[a] | – | – | – |
| COC(Cn1cncn1)(c1ccc(F)cc1F)C1(Oc2ccc(F)cc2F)CC1 (racemic) [Example I-26] | 3.44^[a] | – | – | – |
| OC(Cn1cncn1)(c1ccc(Cl)cc1F)C1(Oc2ccc(Cl)cc2)CC1 (racemic) [Example I-27] | 3.94^[a] | – | – | – |
| COC(Cn1cncn1)(c1ccc(Cl)cc1F)C1(Oc2ccc(Cl)cc2)CC1 (racemic) [Example I-28] | 4.29^[a] | – | – | – |
| OC(Cn1cncn1)(c1ccc(Cl)cc1F)C1(Oc2ccc(Cl)cc2F)CC1 (racemic) [Example I-29] | 3.89^[a] | – | – | – |
| CCOC(Cn1cncn1)(c1ccc(F)cc1F)C1(Oc2ccc(Cl)cc2)CC1 (racemic) [Example I-30] | 4.32^[a] | – | – | – |
| C#CCOC(Cn1cncn1)(c1ccc(F)cc1F)C1(Oc2ccc(Cl)cc2)CC1 (racemic) [Example I-31] | 3.90^[a] | – | – | – |
| CCCOC(Cn1cncn1)(c1ccc(F)cc1F)C1(Oc2ccc(Cl)cc2)CC1 (racemic) [Example I-32] | 4.73^[a] | – | – | – |
| C=CCOC(Cn1cncn1)(c1ccc(F)cc1F)C1(Oc2ccc(Cl)cc2)CC1 (racemic) [Example I-33] | 4.34^[a] | – | – | – |
| C[Si](C)(C)COC(Cn1cncn1)(c1ccc(F)cc1F)C1(Oc2ccc(Cl)cc2)CC1 (racemic) [Example I-34] | 5.68^[a] | – | – | – |
| Fc1ccc(C(Cn2cncn2)(OCC2CC2)C2(Oc3ccc(Cl)cc3)CC2)c(F)c1 (racemic) [Example I-35] | 4.71^[a] | – | – | – |
| COC(Cn1cncn1)(c1ccc(F)cc1F)C1(Oc2ccc(Cl)cc2)CC1 (racemic) [Example I-36] | 3.81^[a] | – | – | – |
| CC(C)COC(Cn1cncn1)(c1ccc(F)cc1F)C1(Oc2ccc(Cl)cc2)CC1 (racemic) [Example I-37] | 5.11^[a] | – | – | – |
| OC(Cn1cncn1)(c1ccc(F)cc1F)C1(Oc2ccc(C(F)(F)F)cc2)CC1 (racemic) [Example I-38] | 3.70^[a] | – | – | – |
| OC(Cn1cncn1)(c1ccc(F)cc1F)C1(Oc2cccc(Cl)c2)CC1 (racemic) [Example I-39] | 3.55^[a] | – | – | – |
| OC(Cn1cncn1)(c1ccc(F)cc1F)C1(Oc2ccc(Cl)c(F)c2)CC1 (racemic) [Example I-40] | 3.63^[a] | – | – | – |
| Fc1cc(Cl)ccc1C1(C2(Oc3ccc(Cl)cc3)CC2)CO1 (racemic) [Example V-22] | 5.08^[a] | – | – | – |
| Fc1cc(Cl)ccc1OC1(C2(c3ccc(Cl)cc3F)CO2)CC1 (racemic) [Example V-23] | 5.00^[a] | – | – | – |
| Fc1ccc(C2(C3(Oc4ccc(Br)c(F)c4)CC3)CO2)c(F)c1 (racemic) [Example V-24] | 4.89^[a] | – | – | – |
| Fc1ccc(C2(C3(Oc4ccc(OC(F)F)cc4)CC3)CO2)c(F)c1 (racemic) [Example V-25] | 4.24^[a] | – | – | – |
| Fc1ccc(C2(C3(Oc4cccc(Cl)c4F)CC3)CO2)c(F)c1 (racemic) [Example V-26] | 4.44^[a] | – | – | – |
| Fc1ccc(C2(C3(Oc4ccc(F)c(F)c4)CC3)CO2)c(F)c1 (racemic) [Example V-27] | 4.36^[a] | – | – | – |
| OC(Cn1cncn1)(c1ccc(F)cc1F)C1(Oc2ccc(Cl)cc2)CC1 (single isomer, unassigned) [Example I-41] | 3.48^[a] | – | – | – |

| Structure (SMILES) | LogP [1] | LogP [2] | chromatographic logP [1] | chromatographic logP [2] |
| --- | --- | --- | --- | --- |
| Fc1ccc(C2(C3(Oc4ccc(Cl)cc4)CC3)CO2)c(F)c1 (centres unmarked) [Example V-1, 2-[1-(4-chlorophenoxy)cyclopropyl]-2-(2,4-difluorophenyl)oxirane] | – | – | 4.57 | 4.58 |
| Fc1ccc(C2(C3(Oc4ccc(Cl)cc4F)CC3)CO2)c(F)c1 (centres unmarked) [Example V-2] | 4.50^[a]; 4.50^[b] | 4.50^[a]; 4.50^[b] | – | – |
| Fc1ccc(C2(C3(Oc4ccc(F)cc4Cl)CC3)CO2)c(F)c1 (centres unmarked) [Example V-3] | 4.45 | 4.44 | – | – |
| Fc1ccc(C2(C3(Oc4ccccc4F)CC3)CO2)c(F)c1 (centres unmarked) [Example V-4] | 3.99^[a] | – | – | – |
| Fc1ccc(C2(C3(Oc4ccccc4Br)CC3)CO2)c(F)c1 (centres unmarked) [Example V-5] | 4.36 | 4.43 | – | – |
| Fc1ccc(C2(C3(Oc4cccc(Br)c4)CC3)CO2)c(F)c1 (centres unmarked) [Example V-6] | 4.63 | 4.71 | – | – |
| Fc1ccc(C2(C3(Oc4ccc(Br)cc4)CC3)CO2)c(F)c1 (centres unmarked) [Example V-7] | 4.66 | 4.74 | – | – |
| Fc1ccc(C2(C3(Oc4ccccc4I)CC3)CO2)c(F)c1 (centres unmarked) [Example V-8] | 4.58 | 4.66 | – | – |
| Fc1ccc(C2(C3(Oc4cccc(I)c4)CC3)CO2)c(F)c1 (centres unmarked) [Example V-9] | 4.82 | 4.90 | – | – |
| Fc1ccc(C2(C3(Oc4ccc(I)cc4)CC3)CO2)c(F)c1 (centres unmarked) [Example V-10] | 4.87 | 4.95 | – | – |
| Fc1ccc(C2(C3(Oc4ccc(Br)cc4F)CC3)CO2)c(F)c1 (centres unmarked) [Example V-11] | 4.57 | 4.65 | – | – |
| Cc1cc(I)ccc1OC1(C2(c3ccc(F)cc3F)CO2)CC1 (centres unmarked) [Example V-12] | – | 5.40 and 5.48 | – | – |
| N#Cc1cc(I)ccc1OC1(C2(c3ccc(F)cc3F)CO2)CC1 (centres unmarked) [Example V-13] | 4.14 | 4.21 | – | – |
| Cc1cc(Br)ccc1OC1(C2(c3ccc(F)cc3F)CO2)CC1 (centres unmarked) [Example V-14] | 5.25^[a]; 5.25^[b] | 5.25^[a]; 5.25^[b] | – | – |
| Fc1ccc(C2(C3(Oc4ccc(OC(F)(F)F)cc4)CC3)CO2)c(F)c1 (centres unmarked) [Example V-15] | 4.70 | 4.86 | – | – |
| Fc1ccc(C2(C3(Oc4ccc(SC(F)(F)F)cc4)CC3)CO2)c(F)c1 (centres unmarked) [Example V-16] | 5.23 | 5.24 | – | – |
| Fc1ccc(OC2(C3(c4ccc(Cl)cc4F)CO3)CC2)c(F)c1 (centres unmarked) [Example V-17] | 4.56^[a] | – | – | – |
| Fc1ccc(C2(C3(Oc4c(F)cccc4F)CC3)CO2)c(F)c1 (centres unmarked) [Example V-18] | 4.11^[a] | – | – | – |
| Fc1ccc(C2(C3(Oc4c(Cl)cccc4Cl)CC3)CO2)c(F)c1 (centres unmarked) [Example V-19] | 4.80^[a] | – | – | – |
| Fc1ccc(C2(C3(Oc4c(F)cccc4Cl)CC3)CO2)c(F)c1 (centres unmarked) [Example V-20] | 4.49^[a] | – | – | – |
| Fc1ccc(C2(C3(Oc4c(F)cccc4Br)CC3)CO2)c(F)c1 (centres unmarked) [Example V-21] | 4.59^[a] | – | – | – |
